Results published in US10780092B2, “Fused pyrazine derivatives useful as soluble guanylate cyclase stimulators” (Merck Sharp & Dohme Corp., priority 2016, dated 2020).

Key:
[1] = target: human recombinant sGC enzyme (Homo sapiens (Human), UniProt Q02108+Q02153); assay: SEC competition binding assay with [3H] Compound B radioligand; details: displacement of 1.6 nM [3H] Compound B, 24 h at 37° C.
Procedure: The binding potencies of sGC compounds to the human recombinant sGC enzyme were determined in a Size Exclusion Chromatography (SEC) competition binding assay using [^3H] Compound B as the radioligand. [^3H] Compound B was prepared using a standardardized tritium exchange procedure. The parent (non-labeled) molecule was first iodinated then a Pd-catalyzed iodine to tritium exchange provided the labeled compound.
Method: The binding buffer was composed of 50 mM triethanolamine pH 7.4, 3 mM MgCl2, 0.025% BSA, 2 mM dithiothreitol (DTT), 300 μM DETA/NO and 400 μM GTP. Assays were conducted in 96-well plates in a total volume of 200 μL. Recombinant human sGC protein (40 ng) was incubated with 1.6 nM [^3H] Compound B for 24 h at 37° C. in the presence and absence of various concentrations of sGC testing compounds delivered as DMSO solutions to give a total of 1% organic solvent content. Non-specific binding was defined by competition with 1 μM of Compound B. After the incubation period, the binding mixtures were loaded onto the gel-filtration plate (ThermoFischer Cat. No. 89808) pre-equilibrated with binding buffer and spun at 1000×g for 3 min at 4° C. on a Bench top centrifuge. The collected eluates in White Frame Clear Well Isoplates (Perkin Elmer Cat #6005040) received 100 μl of UltimaGold scintillation cocktail. The sealed plates were shaken vigorously and span, and counted after 6 hs with a Wallac Microbeta TriLux 1450 LSC & Luminescence Counter (Perkin Elmer). Data from competition experiments were analyzed to determine Ki values using one site—fit Ki equation.

sGC α1/β1 heterodimer = sGC α1/β1 heterodimer (Homo sapiens (Human), UniProt Q02108+Q02153); assay: Cell-based sGC functional assay (CASA assay), cGMP by HTRF; details: CHO-K1/sGC cells; for Emax: CHO-K1, cGMP production as percentage of maximum of compound A (set to 100%), read-out: % Activation; for EC50: inflection point of cGMP production, 4P fit, read-out: IP
Text: Cell-Based sGC Functional Assay (Cyclic GMP Assay for sGC Activator: CASA Assay)
Soluble guanylate cyclase (sGC) is a heme-containing enzyme that converts GTP to secondary messenger cGMP. Increases in cGMP levels affect several physiological processes including vasorelaxation through multiple downstream pathways. […] Heme-dependent activators (HDAs) preferentially target sGC containing a ferrous heme group. To determine the effect of sGC activators on enzyme activity, the CASA assay was developed to monitor the generation of cGMP in a cell line that stably expresses the heterodimeric sGC protein.
A CHO-K1 cell line stably expressing the sGC α1/β1 heterodimer was generated using a standard transfection protocol. The cDNA's encoding human sGC α1 and β1 were cloned in pIRES hyg and pIRES neo respectively using standard molecular biology techniques. The plasmids pIRES hyg and pIRES neo plasmids were obtained from Clontech. CHO-K1 cells were transfected with plasmids pIREShyg-hsGCα1 and pIRESneo-hsGCβ1 simultaneously using FUGENE reagent. Clones that stably express both subunits were selected with hygromycin and neomycin for ˜2 weeks. The clone chosen for the assay was designated CHO-K1/sGC. CHO-K1/sGC cells were maintained in F-K12 medium containing 10% heat-inactivated Fetal Bovine Serum (FBS), 100 μg/mL penicillin/streptomycin, 0.5 mg/mL hygromycin and 0.25 mg/mL G418. The cells were then cryopreserved in liquid nitrogen. On the day of the assay, the cells were thawed and resuspended in EBSS Assay Buffer (Sigma, E3024) supplemented with 5 mM MgCl2, 10 mM HEPES (4-(2-hydroxyethyl)piperazine-1-ethanesulfonic acid) and 0.05% BSA (bovine serum albumin) and cell density was then adjusted to 2.25×10^5/mL with EAB. IBMX (3-isobutyl-1-methylxanthin, 0.5 mM) was added to inhibit degradation of cGMP. Compounds were diluted from DMSO stock solutions and added to the assay at a final DMSO concentration of 2.5%. Cells were pre-incubated in the presence and absence of 1 μM of Diethylenetriamine/nitric oxide adduct (DETA-NO; Sigma, 17018) for 30 min at 25° C. Compounds were subsequently added and incubated for 1 hr at 37° C. At the end of the incubation period, the reaction was terminated and the cells were lysed with the detection reagents from Cisbio Kits. The level of intracellular cGMP was determined using an HTRF-based assay kit (CisBio, 62GM2PEC), which detects the displacement of a fluorescence labeled cGMP from its specific antibody. The cGMP produced by test compounds was directly compared to the maximum cGMP production (this value was set to equal 100% activation) of the published sGC compound A (Example 1 in WO 2010/065275, published Jun. 10, 2010).
The test compounds' activities were then expressed as a percentage of compound A, the standard in every experiment. This percent activation was calculated either in the presence or absence of DETA-NO which was then plotted. Inflection points (IP) and maximum fold induction was derived using Abase analysis software for 4P fit.

Molecule `CC1(c2ccc(C(F)(F)F)c(O)c2)C(=O)Nc2nc(-c3cn4ccnc4c(Cc4cc(F)cc(F)c4F)n3)nc(N)c21` (stereo not drawn) [Example 33-B, 4-Amino-5-(3-hydroxy-4-(trifluoromethyl)phenyl)-5-methyl-2-{8-[(2,3,5-trifluorophenyl)methyl]imidazo[1,2-a]pyrazin-6-yl}-5,7-dihydro-6H-pyrrolo[2,3-d]pyrimidin-6-one] has a Ki [1] of 0.312 nM, an Emax (sGC α1/β1 heterodimer) of 111% and an EC50 (sGC α1/β1 heterodimer) of 260 nM.
For `CC1(c2cccc(O)c2)C(=O)Nc2nc(-c3cn4ccnc4c(Cc4ccc(F)cc4F)n3)nc(N)c21` (stereo not drawn) [Example 34-B, 4-Amino-2-{8-[(2,4-difluorophenyl)methyl]imidazo[1,2-a]pyrazin-6-yl}-5-(3-hydroxyphenyl)-5-methyl-5,7-dihydro-6H-pyrrolo[2,3-d]pyrimidin-6-one], the Ki [1] was 0.317 nM, the Emax (sGC α1/β1 heterodimer) was 111% and the EC50 (sGC α1/β1 heterodimer) was 243 nM.
With `CC1(c2ccc(O)c(Cl)c2)C(=O)Nc2nc(-c3cn4ccnc4c(Cc4cccc(F)c4)n3)nc(N)c21` (stereo not drawn) [Example 35-B, 4-Amino-5-(3-chloro-4-hydroxyphenyl)-2-{8-[(3-fluorophenyl)methyl]imidazo[1,2-a]pyrazin-6-yl}-5-methyl-5,7-dihydro-6H-pyrrolo[2,3-d]pyrimidin-6-one] the Ki [1] was 0.333 nM, the Emax (sGC α1/β1 heterodimer) was 147% and the EC50 (sGC α1/β1 heterodimer) was 402 nM.
With `CC1(c2ccc(Cl)c(O)c2)C(=O)Nc2nc(-c3cn4ccnc4c(Cc4cc(F)cc(F)c4)n3)nc(N)c21` (stereo not drawn) [Example 36-A, 4-Amino-5-(4-chloro-3-hydroxyphenyl)-2-{8-[(3,5-difluorophenyl)methyl]imidazo[1,2-a]pyrazin-6-yl}-5-methyl-5,7-dihydro-6H-pyrrolo[2,3-d]pyrimidin-6-one] the Ki [1] was 0.393 nM, the Emax (sGC α1/β1 heterodimer) was 116% and the EC50 (sGC α1/β1 heterodimer) was 381 nM.
`CC1(c2ccc(F)c(O)c2)C(=O)Nc2nc(-c3cn4ccnc4c(Cc4ccc(F)cc4)n3)nc(N)c21` (stereo not drawn) [Example 37-B, 4-Amino-5-(4-fluoro-3-hydroxyphenyl)-2-{8-[(4-fluorophenyl)methyl]imidazo[1,2-a]pyrazin-6-yl}-5-methyl-5,7-dihydro-6H-pyrrolo[2,3-d]pyrimidin-6-one] showed a Ki [1] of 0.427 nM, an Emax (sGC α1/β1 heterodimer) of 117% and an EC50 (sGC α1/β1 heterodimer) of 69 nM.
`CCCCc1nc(-c2nc(N)c3c(n2)NC(=O)C3(C)c2cc(O)c(Cl)c(F)c2)cn2ccnc12` (stereo not drawn) [Example 39-B, 4-Amino-2-(8-butylimidazo[1,2-a]pyrazin-6-yl)-5-(4-chloro-3-fluoro-5-hydroxyphenyl)-5-methyl-5,7-dihydro-6H-pyrrolo[2,3-d]pyrimidin-6-one] showed a Ki [1] of 0.446 nM, an Emax (sGC α1/β1 heterodimer) of 101% and an EC50 (sGC α1/β1 heterodimer) of 873 nM.
`CC1(c2cc(O)c(Cl)cn2)C(=O)Nc2nc(-c3cn4ccnc4c(Cc4cc(F)cc(F)c4)n3)nc(N)c21` (stereo not drawn) [Example 40-B, 4-Amino-5-(5-chloro-4-hydroxypyridin-2-yl)-2-{8-[(3,5-difluorophenyl)methyl]imidazo[1,2-a]pyrazin-6-yl}-5-methyl-5,7-dihydro-6H-pyrrolo[2,3-d]pyrimidin-6-one] was tested, and the Ki [1] was 0.479 nM, the Emax (sGC α1/β1 heterodimer) was 88% and the EC50 (sGC α1/β1 heterodimer) was 368 nM.
In the case of `CC1(c2ccc(O)c(F)c2)C(=O)Nc2nc(-c3cn4ncnc4c(Cc4ccc(F)cc4)n3)nc(N)c21` (stereo not drawn) [Example 41-B, 4-Amino-5-(3-fluoro-4-hydroxyphenyl)-2-{8-[(4-fluorophenyl)methyl]-[1,2,4]triazolo[1,5-a]pyrazin-6-yl}-5-methyl-5,7-dihydro-6H-pyrrolo[2,3-d]pyrimidin-6-one], the Ki [1] is reported as 0.49 nM, the Emax (sGC α1/β1 heterodimer) is reported as 136% and the EC50 (sGC α1/β1 heterodimer) is reported as 588 nM.
For `CCCCc1nc(-c2nc(N)c3c(n2)NC(=O)C3(C)c2cc(O)c(Cl)c(F)c2)cn2ncnc12` (stereo not drawn) [Example 42-B, 4-Amino-2-(8-butyl-[1,2,4]triazolo[1,5-a]pyrazin-6-yl)-5-(4-chloro-3-fluoro-5-hydroxyphenyl)-5-methyl-5,7-dihydro-6H-pyrrolo[2,3-d]pyrimidin-6-one], the Ki [1] was 0.496 nM, the Emax (sGC α1/β1 heterodimer) was 170% and the EC50 (sGC α1/β1 heterodimer) was 146 nM.
Work on `CC1(c2ccc(O)cc2)C(=O)Nc2nc(-c3cn4ccnc4c(Cc4ccc(F)cc4)n3)nc(N)c21` (stereo not drawn) [Example 43-B, 4-Amino-2-{8-[(4-fluorophenyl)methyl]imidazo[1,2-a]pyrazin-6-yl}-5-(4-hydroxyphenyl)-5-methyl-5,7-dihydro-6H-pyrrolo[2,3-d]pyrimidin-6-one] yielded a Ki [1] of 0.457 nM, an Emax (sGC α1/β1 heterodimer) of 101% and an EC50 (sGC α1/β1 heterodimer) of 142 nM.
For `CC1(c2ccc(Cl)c(O)c2)C(=O)Nc2nc(-c3cn4ccnc4c(Cc4ccc(Cl)cc4)n3)nc(N)c21` (stereo not drawn) [Example 44-A, 4-Amino-5-(4-chloro-3-hydroxyphenyl)-2-{8-[(4-chlorophenyl)methyl]imidazo[1,2-a]pyrazin-6-yl}-5-methyl-5,7-dihydro-6H-pyrrolo[2,3-d]pyrimidin-6-one], the Ki [1] was 0.507 nM, the Emax (sGC α1/β1 heterodimer) was 100% and the EC50 (sGC α1/β1 heterodimer) was 460 nM.
`Cc1cc(C2(C)C(=O)Nc3nc(-c4cn5ccnc5c(Cc5cccc(F)c5)n4)nc(N)c32)ccc1O` (stereo not drawn) [Example 45-A, 4-Amino-2-{8-[(3-fluorophenyl)methyl]imidazo[1,2-a]pyrazin-6-yl}-5-(4-hydroxy-3-methylphenyl)-5-methyl-5,7-dihydro-6H-pyrrolo[2,3-d]pyrimidin-6-one] was tested, and the Ki [1] was 0.565 nM, the Emax (sGC α1/β1 heterodimer) was 120% and the EC50 (sGC α1/β1 heterodimer) was 1570 nM.
`CC1(c2ccc(C(F)(F)F)c(O)c2)C(=O)Nc2nc(-c3cn4ccnc4c(Cc4cc(F)cc(F)c4)n3)nc(N)c21` (stereo not drawn) [Example 46-B, 4-Amino-2-{8-[(3,5-difluorophenyl)methyl]imidazo[1,2-a]pyrazin-6-yl}-5-(3-hydroxy-4-(trifluoromethyl)phenyl)-5-methyl-5,7-dihydro-6H-pyrrolo[2,3-d]pyrimidin-6-one] gave a Ki [1] of 0.691 nM, an Emax (sGC α1/β1 heterodimer) of 117% and an EC50 (sGC α1/β1 heterodimer) of 893 nM.
`CC(C)CCc1nc(-c2nc(N)c3c(n2)NC(=O)C3(C)c2ccc(F)c(O)c2)cn2ccnc12` (stereo not drawn) [Example 47-B, 4-Amino-5-(4-fluoro-3-hydroxyphenyl)-2-(8-isopentylimidazo[1,2-a]pyrazin-6-yl)-5-methyl-5,7-dihydro-6H-pyrrolo[2,3-d]pyrimidin-6-one] was tested, and the Ki [1] was 0.676 nM, the Emax (sGC α1/β1 heterodimer) was 103% and the EC50 (sGC α1/β1 heterodimer) was 70 nM.
With `CC1(c2cccc(O)c2)C(=O)Nc2nc(-c3cn4ccnc4c(Cc4cc(F)cc(F)c4)n3)nc(N)c21` (stereo not drawn) [Example 48-B, 4-Amino-2-{8-[(3,5-difluorophenyl)methyl]imidazo[1,2-a]pyrazin-6-yl}-5-(3-hydroxyphenyl)-5-methyl-5,7-dihydro-6H-pyrrolo[2,3-d]pyrimidin-6-one] the Ki [1] was 0.723 nM, the Emax (sGC α1/β1 heterodimer) was 114% and the EC50 (sGC α1/β1 heterodimer) was 198 nM.
`CC1(c2ccc(Cl)c(O)n2)C(=O)Nc2nc(-c3cn4ccnc4c(CC4CCCCC4)n3)nc(N)c21` (stereo not drawn) [Example 49-A, 4-Amino-5-(5-chloro-6-hydroxypyridin-2-yl)-2-(8-(cyclohexylmethyl)imidazo[1,2-a]pyrazin-6-yl)-5-methyl-5,7-dihydro-6H-pyrrolo[2,3-d]pyrimidin-6-one] showed a Ki [1] of 0.746 nM, an Emax (sGC α1/β1 heterodimer) of 111% and an EC50 (sGC α1/β1 heterodimer) of 363 nM.
